Results: article PMC9669016, “First-in-human phase Ia study of the PI3Kα inhibitor CYH33 in patients with solid tumors” (Nature Communications, 2022)
Where two headings read alike, the source gives them in different places.

Assay: Clinical pharmacokinetics: plasma CYH33 and I27 by LC/MS/MS
Type: in vivo, human
Details: for AUC(0-t) / Cmax / Tmax / concentration at 0.5 h / concentration at 24 h / concentration at 72 h / concentration at 4 h / concentration at 12 h / concentration at 0 h / AUC(0-inf) / half-life: human, plasma; for AUC(0-inf): read-out: AUC0-∞, mean (CV%)
Experimental: The PK characteristics of CYH33 and its active metabolite I27 were evaluated after single and multiple dose administrations. PK data were obtained from 37 patients from 7 dose cohorts: 1 mg (n = 1), 5 mg (n = 1), 10 mg (n = 2), 20 mg (n = 6), 30 mg (n = 12), 40 mg (n = 13), and 60 mg (n = 2). Intensive and sparse PK sampling was performed. Prior to initiating a continuous daily treatment cycle, the first 5 patients participated in a single dose PK treatment period with a 7-day washout in order to determine the terminal-phase half-life (t1/2) of CYH33 and its active metabolite I27. Based on the single dose PK data for CYH33 of the first 5 patients at doses of 1, 5, 10 and 20 mg, the PK and metabolic characteristics of CYH33 and I27 were evaluated. Combined with the pre-specified rules in the protocol and deliberation from the SMC, subsequent patients directly entered the continuous dose phase.
Blood samples for PK evaluation were collected at: (1) during the single dose phase: on day 1 pre-dose and 0.5, 1, 2, 4, 8, 12, 24, 36, 48, and 72 h post-dose; (2) during the continuous dose phase: C1D1/Cycle 1 Day 28 pre-dose, and 0.5, 1, 2, 3, 4, 6, 8, 12, and 24 h post-dose; and C1D8/Day 15 pre-dose. Plasma concentrations of CYH33 and I27 were analyzed using a liquid chromatography-tandem mass spectrometry (LC/MS/MS) assay (Shimadzu Corporation, LC-30AD) with a lower limit of quantification (LLOQ) of 2.585 ng/mL and 1.0 ng/mL for CYH33 and I27, respectively. […] Blood samples for measuring the FBG level were collected within 30 min before dosing on C1D1, C1D15, and on the first day of subsequent treatment cycles.

[1] = CYH33, Cycle 1 Day 28, 1 mg (n=1)
[2] = CYH33, Cycle 1 Day 28, 5 mg (n=1)
[3] = CYH33, Cycle 1 Day 28, 10 mg (n=2)
[4] = CYH33, Cycle 1 Day 28, 20 mg (n=6)
[5] = CYH33, Cycle 1 Day 28, 30 mg (n=9)
[6] = CYH33, Cycle 1 Day 28, 40mg (n=7)
[7] = CYH33, Cycle 1 Day 28, 60 mg (n=2)

## COC(=O)Nc1cc(C(F)(F)F)c(-c2nc(N3CCOCC3)c3cc(CN4CCN(S(C)(=O)=O)CC4)cn3n2)cn1 [CYH33, methyl (5-(6-((4-(methylsulfonyl)piperazin-1-yl)methyl)−4-morpholinopyrrolo[2,1-f][1,2,4]triazin-2-yl)−4-(trifluoromethyl)pyridin-2-yl)carbamate]
[1]
  Cmin, mean: 0 ng/mL
  Rac_AUC, mean: 2.0
  Rac_Cmax, mean: 1.0
[2]
  CLss/F, mean: 8.6 L/h
  Cmin, mean: 15.1 ng/mL
  Rac_AUC, mean: 2.2
  Rac_Cmax, mean: 2.3
[3]
  CLss/F, mean: 8.2 L/h
  Cmin, mean: 33.4 ng/mL
  Rac_AUC, mean: 2.0
  Rac_Cmax, mean: 1.8
[4]
  CLss/F, mean: 8.1 L/h
  Cmin, mean: 80.8 ng/mL
  Rac_AUC, mean: 4.2
  Rac_Cmax, mean: 3.3
[5]
  CLss/F, mean: 11.0 L/h
  Cmin, mean: 111.4 ng/mL
  Rac_AUC, mean: 2.9
  Rac_Cmax, mean: 1.9
[6]
  CLss/F, mean: 11.8 L/h
  Cmin, mean: 126.5 ng/mL
  Rac_AUC, mean: 4.3
  Rac_Cmax, mean: 3.2
[7]
  CLss/F, mean: 15.9 L/h
  Cmin, mean: 133.2 ng/mL
  Rac_AUC, mean: 3.2
  Rac_Cmax, mean: 2.2
Daily dosing
  average accumulation of exposure (AUC0-24h) at steady state vs Cycle 1 Day 1: around 2.9 fold
  time to steady state: ≤ 8 days
oral, 1 mg, CYH33, Cycle 1 Day 1, 1 mg (n = 1), read-out: AUC0-24h, mean (CV%)
  AUC(0-t): 26 ng·h/mL
oral, 1 mg, CYH33, Cycle 1 Day 1, 1 mg (n = 1), read-out: Cmax, mean (CV%)
  Cmax: 4.6 ng/mL
oral, 1 mg, CYH33, Cycle 1 Day 1, 1 mg (n = 1), read-out: Tmax, median (min-max)
  Tmax: 1 h
oral, 1 mg, CYH33, Cycle 1 Day 28, 1 mg (n=1), read-out: AUC0-24h, mean
  AUC(0-t): 51.6 ng·h/mL
oral, 1 mg, CYH33, Cycle 1 Day 28, 1 mg (n=1), read-out: Cmax, mean
  Cmax: 4.8 ng/mL
oral, 1 mg, CYH33, Cycle 1 Day 28, 1 mg (n=1), read-out: Tmax, median
  Tmax: 4 h
oral, 5 mg, CYH33, Cycle 1 Day 1, 5 mg (n = 1), read-out: AUC0-24h, mean (CV%)
  AUC(0-t): 266 ng·h/mL
oral, 5 mg, CYH33, Cycle 1 Day 1, 5 mg (n = 1), read-out: Cmax, mean (CV%)
  Cmax: 24.6 ng/mL
oral, 5 mg, CYH33, Cycle 1 Day 1, 5 mg (n = 1), read-out: Tmax, median (min-max)
  Tmax: 2 h
oral, 5 mg, CYH33, Cycle 1 Day 28, 5 mg (n=1), read-out: AUC0-24h, mean
  AUC(0-t): 582 ng·h/mL
oral, 5 mg, CYH33, Cycle 1 Day 28, 5 mg (n=1), read-out: Cmax, mean
  Cmax: 56.2 ng/mL
oral, 5 mg, CYH33, Cycle 1 Day 28, 5 mg (n=1), read-out: Tmax, median
  Tmax: 1 h
oral, 10 mg, CYH33, Cycle 1 Day 1, 10 mg (n = 2), read-out: AUC0-24h, mean (CV%)
  AUC(0-t): 624 ng·h/mL
oral, 10 mg, CYH33, Cycle 1 Day 1, 10 mg (n = 2), read-out: Cmax, mean (CV%)
  Cmax: 43.1 ng/mL
oral, 10 mg, CYH33, Cycle 1 Day 1, 10 mg (n = 2), read-out: Tmax, median (min-max)
  Tmax: 4 h
oral, 10 mg, CYH33, Cycle 1 Day 28, 10 mg (n=2), read-out: AUC0-24h, mean
  AUC(0-t): 1230 ng·h/mL
oral, 10 mg, CYH33, Cycle 1 Day 28, 10 mg (n=2), read-out: Cmax, mean
  Cmax: 78.9 ng/mL
oral, 10 mg, CYH33, Cycle 1 Day 28, 10 mg (n=2), read-out: Tmax, median
  Tmax: 3 h
oral, 20 mg, CYH33, Cycle 1 Day 1, 20 mg (n = 5), read-out: AUC0-24h, mean (CV%)
  AUC(0-t): 763 ng·h/mL
oral, 20 mg, CYH33, Cycle 1 Day 1, 20 mg (n = 5), read-out: Cmax, mean (CV%)
  Cmax: 56.3 ng/mL
oral, 20 mg, CYH33, Cycle 1 Day 1, 20 mg (n = 5), read-out: Tmax, median (min-max)
  Tmax: 2 h
oral, 20 mg, CYH33, Cycle 1 Day 28, 20 mg (n=6), read-out: AUC0-24h, mean
  AUC(0-t): 2630 ng·h/mL
oral, 20 mg, CYH33, Cycle 1 Day 28, 20 mg (n=6), read-out: Cmax, mean
  Cmax: 154 ng/mL
oral, 20 mg, CYH33, Cycle 1 Day 28, 20 mg (n=6), read-out: Tmax, median
  Tmax: 3 h
oral, 30 mg, CYH33, Cycle 1 Day 1, 30 mg (n = 12), read-out: AUC0-24h, mean (CV%)
  AUC(0-t): 1300 ng·h/mL
oral, 30 mg, CYH33, Cycle 1 Day 1, 30 mg (n = 12), read-out: Cmax, mean (CV%)
  Cmax: 96.5 ng/mL
oral, 30 mg, CYH33, Cycle 1 Day 1, 30 mg (n = 12), read-out: Tmax, median (min-max)
  Tmax: 3.5 h
oral, 30 mg, CYH33, Cycle 1 Day 28, 30 mg (n=9), read-out: AUC0-24h, mean
  AUC(0-t): 3530 ng·h/mL
oral, 30 mg, CYH33, Cycle 1 Day 28, 30 mg (n=9), read-out: Cmax, mean
  Cmax: 187 ng/mL
oral, 30 mg, CYH33, Cycle 1 Day 28, 30 mg (n=9), read-out: Tmax, median
  Tmax: 3 h
oral, 40 mg, CYH33, Cycle 1 Day 1, 40 mg (n = 3), read-out: AUC0-24h, mean (CV%)
  AUC(0-t): 1320 ng·h/mL
oral, 40 mg, CYH33, Cycle 1 Day 1, 40 mg (n = 3), read-out: Cmax, mean (CV%)
  Cmax: 97.9 ng/mL
oral, 40 mg, CYH33, Cycle 1 Day 1, 40 mg (n = 3), read-out: Tmax, median (min-max)
  Tmax: 2 h
oral, 40 mg, CYH33, Cycle 1 Day 28, 40mg (n=7), read-out: AUC0-24h, mean
  AUC(0-t): 3940 ng·h/mL
oral, 40 mg, CYH33, Cycle 1 Day 28, 40mg (n=7), read-out: Cmax, mean
  Cmax: 224 ng/mL
oral, 40 mg, CYH33, Cycle 1 Day 28, 40mg (n=7), read-out: Tmax, median
  Tmax: 4 h
oral, 60 mg, CYH33, Cycle 1 Day 1, 60 mg (n = 4), read-out: AUC0-24h, mean (CV%)
  AUC(0-t): 1870 ng·h/mL
oral, 60 mg, CYH33, Cycle 1 Day 1, 60 mg (n = 4), read-out: Cmax, mean (CV%)
  Cmax: 123 ng/mL
oral, 60 mg, CYH33, Cycle 1 Day 1, 60 mg (n = 4), read-out: Tmax, median (min-max)
  Tmax: 4 h
oral, 60 mg, CYH33, Cycle 1 Day 28, 60 mg (n=2), read-out: AUC0-24h, mean
  AUC(0-t): 4010 ng·h/mL
oral, 60 mg, CYH33, Cycle 1 Day 28, 60 mg (n=2), read-out: Cmax, mean
  Cmax: 220 ng/mL
oral, 60 mg, CYH33, Cycle 1 Day 28, 60 mg (n=2), read-out: Tmax, median
  Tmax: 2.5 h
oral, C1D1, 1 mg
  concentration at 0.5 h: 1.9 ng/mL
  concentration at 24 h: 0 ng/mL
oral, C1D1, 5 mg
  concentration at 0.5 h: 0 ng/mL
  concentration at 24 h: 5.9 ng/mL
  concentration at 72 h: 0 ng/mL
oral, C1D1, 10 mg
  concentration at 0.5 h: 14 ng/mL
  concentration at 4 h: 43.1 ng/mL
  concentration at 24 h: 17.4 ng/mL
  concentration at 72 h: 3.2 ng/mL
oral, C1D1, 20 mg
  concentration at 4 h: 43.9 ng/mL
  concentration at 12 h: 29.5 ng/mL
  concentration at 24 h: 22.3 ng/mL
  concentration at 72 h: 7.1 ng/mL
oral, C1D1, 30 mg
  concentration at 4 h: 81.2 ng/mL
  concentration at 12 h: 49.9 ng/mL
oral, C1D1, 40 mg
  concentration at 0.5 h: 33.8 ng/mL
  concentration at 24 h: 45.2 ng/mL
oral, C1D1, 60 mg
  concentration at 0.5 h: 21.9 ng/mL
  concentration at 24 h: 61.4 ng/mL
oral, C1D28, 1 mg
  concentration at 0 h: 0 ng/mL
oral, C1D28, 5 mg
  concentration at 0 h: 15.5 ng/mL
oral, C1D28, 10 mg
  concentration at 0 h: 34.8 ng/mL
oral, C1D28, 20 mg
  concentration at 0 h: 85.1 ng/mL
oral, C1D28, 30 mg
  concentration at 0 h: 113 ng/mL
  concentration at 24 h: 124 ng/mL
oral, C1D28, 40 mg
  concentration at 0 h: 141 ng/mL
oral, C1D28, 60 mg
  concentration at 0 h: 147 ng/mL
oral, CYH33, Cycle 1 Day 1, 1 mg (n = 1)
  AUC(0-inf): 36.8 ng·h/mL
oral, CYH33, Cycle 1 Day 1, 5 mg (n = 1)
  AUC(0-inf): 429 ng·h/mL
oral, CYH33, Cycle 1 Day 1, 5 mg (n = 1), read-out: t1/2, mean (CV%) (converted)
  half-life: 19.2 h
oral, CYH33, Cycle 1 Day 1, 10 mg (n = 2)
  AUC(0-inf): 1090 ng·h/mL
oral, CYH33, Cycle 1 Day 1, 10 mg (n = 2), read-out: t1/2, mean (CV%) (converted)
  half-life: 20.2 h
oral, CYH33, Cycle 1 Day 1, 20 mg (n = 5)
  AUC(0-inf): 2190 ng·h/mL
oral, CYH33, Cycle 1 Day 1, 20 mg (n = 5), read-out: t1/2, mean (CV%) (converted)
  half-life: 20.8 h
po, dose range 1–60 mg, read-out: median time to maximum plasma concentration (Tmax)
  Tmax: 1 to 4 h
Oral CYH33, read-out: t1/2 (converted)
  half-life: ~20 h
